Test results: the supplement of paper PMC11208160

Assay: recombinant barcode read abundance after kanamycin selection (control-corrected) (log10(CPM+1)); higher = more efficient recombination; sequences stand for … in AGTGCAGAGAAAATCGGCCAGTTTTCTCTGCCTGCAGTCCGCATGCCGT…AGATTTATGCAGCGGACTGCCTTTCTCCCAAAGTGATAAACCGGACAGTATCATGGACCGGTTTTCCCGGTAATCCGTATTTGCAAGGTTGGTTTCACT; site = the 11-nt target
Method in brief: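 Each value is log10(CPM+1). It describes recombination efficiency, taken as averaged, control-corrected counts per million of barcodes at recombinant junctions. The pooled E. coli library paired targets with IS621 bridge RNA target-binding loops, was co-electroporated with a donor plasmid, and was plated twice on chloramphenicol/ampicillin LB agar (control) and twice on chloramphenicol/ampicillin/kanamycin containing 0.1 mM IPTG.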
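Further: IS621 recombinase and bridge RNA in Escherichia coli cells.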

| Sequence | recombinant barcode read abundance (log10) |
| --- | --- |
| AGTCACACTTGGGTTCTAACCTGTTGCTG (site AGTCACACTCA) | 1.18 |
| AGTCACACTTGGGTTCTAACCTGTTGCTG (site AGTCACACTTA) | 0 |
| AGTCCACCTTGGGTTCTAACCTGTTGCCT (site AGTCCACCTAG) | 1.53 |
| AGTCCACCTTGGGTTCTAACCTGTTGCCT (site CGTCCACCTAG) | 0.166 |
| AGTCCACCTTGGGTTCTAACCTGTTGCCT (site GGTCCACCTAG) | 0.132 |
| AGTCCACCTTGGGTTCTAACCTGTTGCCT (site TGTCCACCTAG) | 0.49 |
| AGTCCGTCTTGGGTTCTAACCTGTTGCAT (site AGTCCGTCTAT) | 1.29 |
| AGTCCGTCTTGGGTTCTAACCTGTTGCAT (site CTAATAGCTTG) | 0.0391 |
| AGTCGGACTTGGGTTCTAACCTGTTGCTT (site AGTCATACTAA) | 0.446 |
| AGTCGGACTTGGGTTCTAACCTGTTGCTT (site AGTCGGACTAA) | 0.517 |
| AGTCGTACTTGGGTTCTAACCTGTTGCCT (site AGACGTACTAG) | 0.166 |
| AGTCGTACTTGGGTTCTAACCTGTTGCCT (site AGCCGTACTAG) | 0.213 |
| AGTCGTACTTGGGTTCTAACCTGTTGCCT (site AGGCGTACTAG) | 0.0589 |
| AGTCGTACTTGGGTTCTAACCTGTTGCCT (site AGTCGTACTAG) | 0.536 |
| AGTCTAGCTTGGGTTCTAACCTGTTGCCA (site AGTCTAGCTAG) | 0.176 |
| AGTCTAGCTTGGGTTCTAACCTGTTGCCA (site AGTCTAGCTCG) | 0.217 |
| AGTCTAGCTTGGGTTCTAACCTGTTGCCA (site AGTCTAGCTGG) | 0.548 |
| AGTCTAGCTTGGGTTCTAACCTGTTGCCA (site AGTCTAGCTTG) | 0.493 |
| AGTCTAGCTTGGGTTCTAACCTGTTGCGG (site AGGATAGCTCC) | 0.479 |
| AGTCTAGCTTGGGTTCTAACCTGTTGCGG (site AGTCTAGCTCC) | 1.33 |
| AGTCTGCCTTGGGTTCTAACCTGTTGCCT (site AGTCTGCCTAG) | 0.427 |
| AGTCTGCCTTGGGTTCTAACCTGTTGCCT (site CGTCTGCCTAG) | 0.0547 |

| Sequence | recombinant barcode read abundance (log10) |
| --- | --- |
| AGTCTGCCTTGGGTTCTAACCTGTTGCCT (site GGTCTGCCTAG) | 0.0978 |
| AGTCTGCCTTGGGTTCTAACCTGTTGCCT (site TGTCTGCCTAG) | 0.0318 |
| AGTGAACCTTGGGTTCTAACCTGTTGCCT (site AGCTAACCTAG) | 0.013 |
| AGTGAACCTTGGGTTCTAACCTGTTGCCT (site AGTGAACCTAG) | 1.84 |
| AGTGAATCTTGGGTTCTAACCTGTTGCCT (site AGAGAATCTAG) | 0.13 |
| AGTGAATCTTGGGTTCTAACCTGTTGCCT (site AGCGAATCTAG) | 0.249 |
| AGTGAATCTTGGGTTCTAACCTGTTGCCT (site AGGGAATCTAG) | 0.286 |
| AGTGAATCTTGGGTTCTAACCTGTTGCCT (site AGTGAATCTAG) | 0.541 |
| AGTGCGTCTTGGGTTCTAACCTGTTGCCT (site AGTGCGTCTAG) | 1.52 |
| AGTGCGTCTTGGGTTCTAACCTGTTGCCT (site CGTGCGTCTAG) | 0.043 |
| AGTGCGTCTTGGGTTCTAACCTGTTGCCT (site GGTGCGTCTAG) | 0.241 |
| AGTGCGTCTTGGGTTCTAACCTGTTGCCT (site TGTGCGTCTAG) | 0.0164 |
| AGTGCTCCTTGGGTTCTAACCTGTTGCGG (site AGAGCTCCTCC) | 0.196 |
| AGTGCTCCTTGGGTTCTAACCTGTTGCGG (site AGTGCTCCTCC) | 0.18 |
| AGTGTCACTTGGGTTCTAACCTGTTGCGG (site AGTGTCACTCC) | 2.77 |
| AGTGTCACTTGGGTTCTAACCTGTTGCGG (site GTGCAACCTAG) | 0.0283 |
| AGTTAATCTTGGGTTCTAACCTGTTGCTT (site AGCTACTCTAA) | 0.0347 |
| AGTTAATCTTGGGTTCTAACCTGTTGCTT (site AGTTAATCTAA) | 0.0371 |
| AGTTAGTCTTGGGTTCTAACCTGTTGCGG (site AATTAGTCTCC) | 0.00949 |
| AGTTAGTCTTGGGTTCTAACCTGTTGCGG (site AGTTAGTCTCC) | 1.43 |
| AGTTGCTCTTGGGTTCTAACCTGTTGCCT (site AGTTGCTCTAG) | 0.468 |
| AGTTGCTCTTGGGTTCTAACCTGTTGCCT (site GGTTGCACTAG) | 0.268 |

| Sequence | recombinant barcode read abundance (log10) |
| --- | --- |
| AGTTGTCCTTGGGTTCTAACCTGTTGCGT (site AGTTGTCCTAA) | 0.121 |
| AGTTGTCCTTGGGTTCTAACCTGTTGCGT (site AGTTGTCCTAC) | 1.21 |
| AGTTGTCCTTGGGTTCTAACCTGTTGCGT (site AGTTGTCCTAG) | 0.108 |
| AGTTGTCCTTGGGTTCTAACCTGTTGCGT (site AGTTGTCCTAT) | 0.251 |
| AGTTTCACTTGGGTTCTAACCTGTTGCTA (site AGTTTCACTTA) | 0.111 |
| AGTTTCACTTGGGTTCTAACCTGTTGCTA (site GCCAAGGCTAG) | 1.31 |
| AGTTTCGCTTGGGTTCTAACCTGTTGCGG (site AGTATCGCTCC) | 0.215 |
| AGTTTCGCTTGGGTTCTAACCTGTTGCGG (site AGTCTCGCTCC) | 0.0337 |
| AGTTTCGCTTGGGTTCTAACCTGTTGCGG (site AGTGTCGCTCC) | 0.0655 |
| AGTTTCGCTTGGGTTCTAACCTGTTGCGG (site AGTTTCGCTCC) | 0.0842 |
| ATAAGAGCTTGGGTTCTAACCTGTTGCCT (site ATAAAAGCTAG) | 0.385 |
| ATAAGAGCTTGGGTTCTAACCTGTTGCCT (site ATAACAGCTAG) | 0.0202 |
| ATAAGAGCTTGGGTTCTAACCTGTTGCCT (site ATAAGAGCTAG) | 1.15 |
| ATAAGAGCTTGGGTTCTAACCTGTTGCCT (site ATAATAGCTAG) | 0.179 |
| ATAAGCTCTTGGGTTCTAACCTGTTGCCG (site ATAAGCTCTCG) | 1.92 |
| ATAAGCTCTTGGGTTCTAACCTGTTGCCG (site GAGCAACCTAA) | 0.0688 |
| ATAAGTCCTTGGGTTCTAACCTGTTGCGA (site ACAAGTCCTCC) | 0.869 |
| ATAAGTCCTTGGGTTCTAACCTGTTGCGA (site ATAAGTCCTTC) | 2.14 |
| ATAATACCTTGGGTTCTAACCTGTTGCCT (site ACAATACCTAG) | 0.135 |
| ATAATACCTTGGGTTCTAACCTGTTGCCT (site ATAATACCTAG) | 1.4 |
| ATAATAGCTTGGGTTCTAACCTGTTGCCT (site ATAAAAGCTAG) | 0.0804 |
| ATAATAGCTTGGGTTCTAACCTGTTGCCT (site ATAACAGCTAG) | 0.0342 |
